Consider 15 compounds from PubChem BioAssay (NCI).

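Five concentrations, 48 hours, 96-well plates. GI50: concentration for 50% inhibition of growth. The concentration for full growth arrest is given as TGI.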

Common to all, as to assay: NCI anticancer screen, dose series, 48 h
The subject of assay [1] is OVCAR-4 ovarian.
Assay [2] concerns RXF 393 renal.
Assay [3] concerns SK-MEL-28 melanoma.
In assay [4] the test system is HOP-62 NSCLC.
For assay [5], the system named is SK-OV-3 ovarian.
Assay [6] relates to EKVX NSCLC.
Assay [7] deals with U251 CNS.
The test system of assay [8] is SF-539 CNS.
Assay [9] concerns MALME-3M melanoma.
Assay [10] relates to COLO 205 colon.

As for `C(=N\Nc1nnn(Cc2ccccc2)n1)/c1ccccc1`, the GI50 in [1] was more than 100 µM; in assay [2], 2.58 µM; in assay [3], 8.47 µM; in assay [4], 4.77 µM; in assay [5], 3.29 µM; in [6] it was 12.3 µM. The GI50 in assay [7] was 3.47 µM; in assay [8], 3.29 µM; in assay [9], 4.64 µM; in assay [10], 3.2 µM. Moreover, the TGI in [1] is more than 100 µM; in [2] it was 20.2 µM; in assay [3] it was more than 100 µM; in [4] it was more than 52.4 µM; in assay [5], 34.7 µM; in assay [6] it was more than 100 µM. Besides, the TGI is 24.9 µM in assay [7], 32.5 µM in [8], more than 82.7 µM in assay [9] and more than 59.2 µM in assay [10].

Consider `C=C1C(=O)O[C@H]2[C@H]1CC/C(C=Nc1c(N)cc(C(F)(F)F)cc1Br)=C\CC[C@@]1(C)O[C@@H]21`, for which the GI50 in assay [1] is 1.57 µM; in assay [2], 1.59 µM; in [3] it was 1.88 µM; in assay [4], 2.17 µM; in [5], 6.56 µM; in [6] it was 1.84 µM. In addition, the GI50 is 1.69 µM in assay [7], 1.51 µM in assay [8], 1.71 µM in [9] and 1.6 µM in assay [10]. The TGI in assay [1] stood at 3.45 µM; in assay [2], 3.11 µM; in assay [3], 3.66 µM; in assay [4], 4.82 µM; in assay [5], 18.9 µM; in [6], 5.1 µM. The TGI in [7] stood at 3.17 µM; in assay [8] it was 2.87 µM; in assay [9] it was 3.34 µM; in assay [10], 3.16 µM.

Consider `CC(=O)O[C@H]1CCc2c(cc(N)c3c2C(=O)C[C@]2(C)C([C@H](C)CCCC(C)C)CCC32C)C1(C)C` (stereo not given in full), for which the TGI in [1], in assay [2], in [3], in assay [4], in assay [5] and in [6] was more than 100 µM throughout. Further, the TGI in assay [7], in assay [8], in assay [9] and in assay [10] was more than 100 µM in each case.

Consider `C=C1C(=O)O[C@H]2[C@H]1CC/C(COC(=O)NCC(C)c1ccc(CC(C)C)cc1)=C\CC[C@@]1(C)O[C@@H]21` (stereo not given in full), for which the GI50 is 2.31 µM in [1]; 0.559 µM in [2]; 1.6 µM in [3]; 5.29 µM in [4]; 5.94 µM in assay [5]; 3.85 µM in assay [6]. Moreover, the GI50 in [7] was 4.32 µM; in assay [8], 3.71 µM; in assay [9], 0.926 µM; in [10], 1.3 µM. Also, the TGI turned out to be 6.59 µM in [1]; 1.17 µM in assay [2]; 5.52 µM in assay [3]; 10.5 µM in assay [4]; 11 µM in assay [5]; 7.95 µM in assay [6]. Also, the TGI in assay [7] was 8.7 µM; in assay [8] it was 7.71 µM; in assay [9], 2.89 µM; in [10], 5.3 µM.

On to `CSC1=Nc2ccccc2N=C(c2ccc(Cl)cc2)C1`, for which the TGI in assay [1] is more than 100 µM; in [2], 79.2 µM; in assay [3], more than 100 µM; in assay [4], more than 100 µM; in assay [5] it was more than 100 µM; in [6] it was more than 100 µM. Further, the TGI is more than 100 µM in assay [7], more than 100 µM in assay [8], 92.6 µM in [9] and more than 100 µM in assay [10].

As for `CC(C)(C)C(=O)[CH-]C(=O)C(C)(C)C.CC(C)(C)C(=O)[CH-]C(=O)C(C)(C)C.CN(C)c1ccc([O-])cc1.CN(C)c1ccc([O-])cc1.[Ti+4]`, the GI50 is more than 100 µM in assay [1]; 14.4 µM in assay [2]; more than 100 µM in [3]; more than 100 µM in assay [4]; more than 100 µM in [5]; more than 100 µM in [6]. Moreover, the GI50 in assay [7] is 43.1 µM; in [8], 55.8 µM; in assay [9] it was more than 100 µM; in assay [10] it was more than 100 µM. Moreover, the TGI in [1], in assay [2], in assay [3], in [4], in assay [5] and in assay [6] was more than 100 µM throughout. The TGI in assay [7], in [8], in assay [9] and in assay [10] was more than 100 µM in each case.

`O=C(/C=C/c1ccccc1)c1ccc(NCc2nc3ccccc3[nH]2)cc1`: the TGI was 22.8 µM in assay [1]; 16.8 µM in assay [2]; 32.6 µM in [3]; 23.3 µM in assay [4]; 18.1 µM in assay [5]; 22.5 µM in [6]. Moreover, the TGI amounted to 5.17 µM in [7], 5.02 µM in [8], 26.9 µM in [9] and 11.1 µM in assay [10].

Consider `CC(C)CCC1(CCN)C(=O)NC(=O)NC1=O`, for which the TGI in assay [1], in assay [2], in [3], in assay [4], in [5] and in [6] was more than 100 µM in each case. Moreover, the TGI in assay [7], in assay [8], in assay [9] and in assay [10] was more than 100 µM throughout.

`Cc1cc(I)cc(CN(C)CCCN2CCCC2)c1O`: the GI50 in assay [1] is 34 µM; in [2], 16.3 µM; in assay [3] it was 15.3 µM; in assay [4] it was 16.4 µM; in assay [5] it was 20.5 µM; in [6], 38.4 µM. In addition, the GI50 in assay [7] was 19.4 µM; in assay [8], 15.3 µM; in [9], 16.6 µM; in [10], 15.6 µM. Besides, the TGI in assay [1] is more than 90.1 µM; in [2] it was 41 µM; in assay [3], 29.9 µM; in assay [4], 34.8 µM; in assay [5], 61.2 µM; in [6], more than 100 µM. Besides, the TGI came out at 49.5 µM in assay [7], 31 µM in assay [8], 33.1 µM in assay [9] and 33.1 µM in assay [10].

Turning to `COC(=O)C1(C)Cc2cc(OC(C)=O)c(OC(C)=O)cc2N1` (stereo not given), the GI50 in assay [1] is 9.34 µM; in assay [2], 2.34 µM; in [3] it was 13.8 µM; in assay [4], more than 100 µM; in assay [5] it was more than 87.4 µM; in assay [6], 15.7 µM. In addition, the GI50 was 8.09 µM in [7], 15.4 µM in [8], 3.18 µM in assay [9] and 6.49 µM in [10]. Further, the TGI in assay [1] is 22.9 µM; in assay [2], 8.48 µM; in [3], 32.3 µM; in assay [4] it was more than 100 µM; in [5] it was more than 100 µM; in assay [6], 49 µM. In addition, the TGI was 21.9 µM in assay [7], 33.2 µM in assay [8], 15.4 µM in assay [9] and more than 40.9 µM in assay [10].

In the case of `COC(=O)C(/C(=N\O)C(=O)Nc1cccc(Cl)c1C)c1cnc2ccccc2n1` (stereo not given), the TGI in assay [1], in assay [2], in [3], in assay [4], in [5] and in [6] was more than 100 µM throughout. Further, the TGI in assay [7], in assay [8], in assay [9] and in assay [10] was more than 100 µM each time.

As for `CSC(=S)N/N=C/c1nccc2ccccc12`, the TGI was more than 100 µM in assay [1]; 6.01 µM in assay [2]; more than 79.8 µM in [3]; 10.1 µM in assay [4]; 29.8 µM in assay [5]; 12.8 µM in assay [6]. For the same compound, the TGI was 6.99 µM in assay [7], 4.83 µM in assay [8], 32.7 µM in assay [9] and 1.58 µM in assay [10].

For the compound `O=c1c2cc(Br)ccc2nc(CCl)n1-c1ccc(O)c([N+](=O)[O-])c1`, the TGI is 33.4 µM in assay [1]; 25.7 µM in [2]; 32.3 µM in assay [3]; 36.1 µM in assay [4]; 93.5 µM in [5]; 31.4 µM in [6]. Besides, the TGI in [7] was more than 100 µM; in assay [8], 33.5 µM; in assay [9] it was 33.4 µM; in [10], 37.8 µM.

Turning to `C=C1C(O)CC[C@]2(C)C1C1OC(C)(C)O[C@]13CC(=O)C(C)=C([C@H]1OC(C)(C)OC12)C3(C)C` (stereo not given in full), the TGI in assay [1], in assay [2], in assay [3], in [4], in assay [5] and in assay [6] was more than 100 µM throughout. Besides, the TGI in assay [7], in assay [8], in [9] and in assay [10] was more than 100 µM throughout.

Consider `CN(C)C(=O)O[C@H]1CN[C@H](C#Cc2cc3ncnc(Nc4ccc(OCc5cccc(F)c5)c(Cl)c4)c3s2)C1`, for which the GI50 in [1] is 20.4 µM; in assay [2], 5.48 µM; in assay [3], more than 25 µM; in assay [4], more than 23.4 µM; in assay [5], 0.102 µM; in assay [6], 1.77 µM. The GI50 in [7] is 14.7 µM; in [8] it was 8.16 µM; in assay [9] it was 5.15 µM; in assay [10], more than 18.6 µM. The TGI is more than 25 µM in [1]; more than 25 µM in assay [2]; more than 25 µM in [3]; more than 25 µM in assay [4]; more than 25 µM in assay [5]; more than 23 µM in [6]. Also, the TGI is more than 25 µM in assay [7], more than 25 µM in [8], 14.5 µM in assay [9] and more than 25 µM in assay [10].
